Measured values published in patent US20240317775A1, “H4 Antagonist Compounds” (HEPTARES THERAPEUTICS LIMITED, priority 2020, published 2024).

target: hERG (Homo sapiens, UniProt Q12809); experiment: hERG single-concentration assay (QPatch automated patch clamp, CHO cells, 30 μM); format: cell-based; conditions: CHO cells stably expressing hERG
Excerpt: Series resistance (4-15 MΩ) was compensated by >80%.

Chain of hERG (Q12809 whole entry): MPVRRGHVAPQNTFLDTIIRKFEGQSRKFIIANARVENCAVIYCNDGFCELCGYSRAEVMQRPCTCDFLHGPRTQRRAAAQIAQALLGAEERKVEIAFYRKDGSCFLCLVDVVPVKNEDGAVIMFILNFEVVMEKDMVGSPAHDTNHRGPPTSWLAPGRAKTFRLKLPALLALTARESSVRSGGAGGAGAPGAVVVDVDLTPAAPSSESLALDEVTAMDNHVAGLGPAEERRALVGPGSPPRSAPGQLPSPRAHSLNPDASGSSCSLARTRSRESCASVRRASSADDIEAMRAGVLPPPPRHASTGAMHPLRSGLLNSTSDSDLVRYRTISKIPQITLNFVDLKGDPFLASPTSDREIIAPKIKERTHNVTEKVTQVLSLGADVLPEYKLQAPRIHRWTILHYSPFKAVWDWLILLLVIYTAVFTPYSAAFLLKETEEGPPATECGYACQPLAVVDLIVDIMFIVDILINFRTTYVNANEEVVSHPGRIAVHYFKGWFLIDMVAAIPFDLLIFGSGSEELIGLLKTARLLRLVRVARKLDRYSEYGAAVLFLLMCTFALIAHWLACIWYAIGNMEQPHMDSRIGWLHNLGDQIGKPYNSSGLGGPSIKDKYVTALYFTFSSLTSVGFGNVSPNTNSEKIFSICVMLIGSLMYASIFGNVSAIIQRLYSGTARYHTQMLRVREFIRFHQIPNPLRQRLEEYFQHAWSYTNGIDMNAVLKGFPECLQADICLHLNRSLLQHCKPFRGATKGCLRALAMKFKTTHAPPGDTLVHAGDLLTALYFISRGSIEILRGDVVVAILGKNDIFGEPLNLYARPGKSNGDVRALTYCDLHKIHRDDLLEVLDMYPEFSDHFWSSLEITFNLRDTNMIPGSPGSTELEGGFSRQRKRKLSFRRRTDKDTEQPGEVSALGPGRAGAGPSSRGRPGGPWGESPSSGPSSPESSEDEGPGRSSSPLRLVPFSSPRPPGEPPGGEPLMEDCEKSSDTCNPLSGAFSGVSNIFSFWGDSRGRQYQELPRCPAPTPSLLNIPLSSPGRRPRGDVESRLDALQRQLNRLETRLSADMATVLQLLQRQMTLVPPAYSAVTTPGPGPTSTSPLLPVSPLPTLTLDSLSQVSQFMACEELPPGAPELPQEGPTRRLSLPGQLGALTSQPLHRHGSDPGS

Compound	inhibition at 30 µM [%]
CN[C@@H]1CCN(c2cc(NCC3CC3)nc(N)n2)C1 [PF-3893787, reference compound]	67

target: T1, human H4 receptor (Homo sapiens, UniProt Q9H3N8); experiment: H4 Antagonist Functional cAMP Gi Assay; format: cell-based; conditions: HEKf cells expressing human H4 receptor; functional antagonist pKb by Cheng-Prusoff vs histamine; read-out: Human H4 cAMP fpKb (converted)
T1 construct: expressed in transfected cells; host or cells: HEKf cells infected with baculovirus
Protocol: HEKf cells were infected overnight using baculovirus expressing the human H4 receptor, then centrifuged at 1,200 rpm for 5 min, frozen in cell freezing medium (Sigma) and stored at −150° C. On the day of assay, the cells were thawed and resuspended in HBSS with 500 nM IBMX to achieve a density of 1,500 cells/well. H4 ligands were prepared in DMSO and stamped by LabCyte ECHO acoustic dispensing at 25 nL in low volume plates. 10 μL/well cells were plated in the presence of 1 μM forskolin, subjected to centrifugation at 1,200 rpm for 1 min and incubated for 30 min prior to addition of Cisbio cAMP detection reagents to a total volume 20 μL/well. […] Following detection reagent addition and shaking at room temperature for 60 min, cAMP accumulation was measured using HTRF on a PheraStar plate reader. EC50 values were generated using a 4-parameter logistical fit equation to quantify agonist potencies. Functional antagonist affinity values were generated using the Cheng-Prusoff equation to calculate a pKb value using the antagonist assay data.

Kb [nM]	Compound
631	CO[C@H](C)[C@@H]1COc2c(ncnc2N2CC[C@@H](N)C2)N1 [Example 8-2, (R)-1-((S)-7-((R)-1-Methoxyethyl)-7,8-dihydro-6H-pyrimido[5,4-b][1,4]oxazin-4-yl)pyrrolidin-3-amine]
39.8	CC(C)[C@H]1CCOc2c(nc(N)nc2N2CC[C@@H](N)C2)N1 [Example 12-2, (R)-4-((R)-3-Aminopyrrolidin-1-yl)-8-isopropyl-6,7,8,9-tetrahydropyrimido[5,4-b][1,4]oxazepin-2-amine]
31.6	CCC1CNc2nc(N)nc(N3CC[C@@H](NC)C3)c2OC1 (stereo partly drawn) [Example 11-8, 7-Ethyl-4-((R)-3-(methylamino)pyrrolidin-1-yl)-6,7,8,9-tetrahydropyrimido[5,4-b][1,4]oxazepin-2-amine]
3.16	CN[C@@H]1CCN(c2ncnc3c2OC[C@@H](C2CC2)N3)C1 [Example 7-2, (R)-1-((R)-7-Cyclopropyl-7,8-dihydro-6H-pyrimido[5,4-b][1,4]oxazin-4-yl)-N-methylpyrrolidin-3-amine]
200	CN[C@@H]1CCN(c2nc(N)nc3c2OCCCN3)C1 [Example 11-1, (R)-4-(3-(Methylamino)pyrrolidin-1-yl)-6,7,8,9-tetrahydropyrimido[5,4-b][1,4]oxazepin-2-amine]
79.4	CC[C@@H]1COc2c(nc(N)nc2N2CC(N)C2)N1 [Example 4-1, (R)-4-(3-Aminoazetidin-1-yl)-7-ethyl-7,8-dihydro-6H-pyrimido[5,4-b][1,4]oxazin-2-amine]
251	CN[C@@H]1CCN(c2ncnc3c2OC(C)CN3)C1 (stereo partly drawn) [Example 7-5, (3R)—N-Methyl-1-(6-methyl-7,8-dihydro-6H-pyrimido[5,4-b][1,4]oxazin-4-yl)pyrrolidin-3-amine]
12.6	CN[C@@H]1CCN(c2nc(N)nc3c2OCC[C@H](C(C)C)N3)C1 [Example 11-6, (R)-8-Isopropyl-4-((R)-3-(methylamino)pyrrolidin-1-yl)-6,7,8,9-tetrahydropyrimido[5,4-b][1,4]oxazepin-2-amine]
100	CN[C@@H]1CCN(c2ncnc3c2OCC[C@H](C(C)C)N3)C1 [Example 14-2, (R)-1-((R)-8-Isopropyl-6,7,8,9-tetrahydropyrimido[5,4-b][1,4]oxazepin-4-yl)-N-methylpyrrolidin-3-amine]
794	CN[C@@H]1CCN(c2nc(N)nc3c2OCC[C@@H]2CCCN32)C1 [Example 11-10, (S)-4-((R)-3-(Methylamino)pyrrolidin-1-yl)-6,7,7a,8,9,10-hexahydropyrimido[5,4-b]pyrrolo[1,2-d][1,4]oxazepin-2-amine]
15.8	CNC1CN(c2nc(N)nc3c2OCC[C@H](C(C)C)N3)C1 [Example 13-2, (R)-8-Isopropyl-4-(3-(methylamino)azetidin-1-yl)-6,7,8,9-tetrahydropyrimido[5,4-b][1,4]oxazepin-2-amine]
251	CN[C@@H]1CCN(c2nc(N)nc3c2OCC(C)CN3)C1 (stereo partly drawn) [Example 11-7, 7-Methyl-4-((R)-3-(methylamino)pyrrolidin-1-yl)-6,7,8,9-tetrahydropyrimido[5,4-b][1,4]oxazepin-2-amine]
398	CN[C@@H]1CCN(c2nc(C)nc3c2OCC(C(C)C)N3)C1 (stereo partly drawn) [Example 10-1, (3R)-1-(7-Isopropyl-2-methyl-7,8-dihydro-6H-pyrimido[5,4-b][1,4]oxazin-4-yl)-N-methylpyrrolidin-3-amine]
31.6	CN[C@@H]1CCN(c2ncnc3c2OC[C@@H]([C@@H](C)OC)N3)C1 [Example 7-4, (R)-1-((S)-7-((R)-1-Methoxyethyl)-7,8-dihydro-6H-pyrimido[5,4-b][1,4]oxazin-4-yl)-N-methylpyrrolidin-3-amine]
63.1	CC(C)[C@@H]1COc2c(nc(N)nc2N2CC(N)C2)N1 [Example 4-2, (R)-4-(3-Aminoazetidin-1-yl)-7-isopropyl-7,8-dihydro-6H-pyrimido[5,4-b][1,4]oxazin-2-amine]

Continued, compound first:

Compound	Kb [nM]
CC[C@@H]1COc2c(nc(N)nc2N2CC[C@@H](N)C2)N1 [Example 2-1, (R)-4-((R)-3-Aminopyrrolidin-1-yl)-7-ethyl-7,8-dihydro-6H-pyrimido[5,4-b][1,4]oxazin-2-amine]	3.16
CO[C@H](C)[C@@H]1COc2c(nc(N)nc2N2CC[C@@H](N)C2)N1 [Example 2-4, (S)-4-((R)-3-Aminopyrrolidin-1-yl)-7-((R)-1-methoxyethyl)-7,8-dihydro-6H-pyrimido[5,4-b][1,4]oxazin-2-amine]	50.1
CN[C@@H]1CCN(c2nc(N)nc3c2OC[C@@H]([C@H](C)OC)N3)C1 [Example 1-11, (S)-7-((S)-1-Methoxyethyl)-4-((R)-3-(methylamino)pyrrolidin-1-yl)-7,8-dihydro-6H-pyrimido[5,4-b][1,4]oxazin-2-amine]	15.8
CO[C@@H](C)[C@@H]1COc2c(nc(N)nc2N2CC[C@@H](N)C2)N1 [Example 2-5, (S)-4-((R)-3-Aminopyrrolidin-1-yl)-7-((S)-1-methoxyethyl)-7,8-dihydro-6H-pyrimido[5,4-b][1,4]oxazin-2-amine]	79.4
CN[C@@H]1CCN(c2nc(N)nc3c2OCC(C(C)C)N3C)C1 (stereo partly drawn) [Example 1-20, 7-Isopropyl-8-methyl-4-((R)-3-(methylamino)pyrrolidin-1-yl)-7,8-dihydro-6H-pyrimido[5,4-b][1,4]oxazin-2-amine]	100
CNC1CN(c2nc(N)nc3c2OC[C@@H](C(C)(C)OC)N3)C1 [Example 3-6, (S)-7-(2-Methoxypropan-2-yl)-4-(3-(methylamino)azetidin-1-yl)-7,8-dihydro-6H-pyrimido[5,4-b][1,4]oxazin-2-amine]	25.1
CN[C@@H]1CCN(c2nc(N)nc3c2OCC(CC(C)C)N3)C1 (stereo partly drawn) [Example 1-7, 7-isobutyl-4-((R)-3-(methylamino)pyrrolidin-1-yl)-7,8-dihydro-6H-pyrimido[5,4-b][1,4]oxazin-2-amine]	20
CNC1CN(c2nc(N)nc3c2OC[C@@H]([C@H](C)OC)N3)C1 [Example 3-5, (S)-7-((S)-1-Methoxyethyl)-4-(3-(methylamino)azetidin-1-yl)-7,8-dihydro-6H-pyrimido[5,4-b][1,4]oxazin-2-amine]	20
CN[C@@H]1CCN(c2nc(N)nc3c2O[C@@H](C)[C@@H](C)N3)C1 [Example 1-16, (6S,7R)-6,7-Dimethyl-4-((R)-3-(methylamino)pyrrolidin-1-yl)-7,8-dihydro-6H-pyrimido[5,4-b][1,4]oxazin-2-amine]	31.6
CN[C@@H]1CCN(c2nc(N)nc3c2OCC(C)N3)C1 (stereo partly drawn) [Example 1-2, 7-Methyl-4-((R)-3-(methylamino)pyrrolidin-1-yl)-7,8-dihydro-6H-pyrimido[5,4-b][1,4]oxazin-2-amine]	12.6
CN[C@@H]1CCN(c2nc(N)nc3c2O[C@H](C)[C@H](C)N3)C1 [Example 1-19, (6R,7S)-6,7-Dimethyl-4-((R)-3-(methylamino)pyrrolidin-1-yl)-7,8-dihydro-6H-pyrimido[5,4-b][1,4]oxazin-2-amine]	79.4
CN[C@@H]1CCN(c2nc(N)nc3c2O[C@@H](C)[C@H](C)N3)C1 [Example 1-18, (6S,7S)-6,7-Dimethyl-4-((R)-3-(methylamino)pyrrolidin-1-yl)-7,8-dihydro-6H-pyrimido[5,4-b][1,4]oxazin-2-amine]	316
COC(C)(C)[C@@H]1COc2c(nc(N)nc2N2CC[C@@H](N)C2)N1 [Example 2-6, (S)-4-((R)-3-Aminopyrrolidin-1-yl)-7-(2-methoxypropan-2-yl)-7,8-dihydro-6H-pyrimido[5,4-b][1,4]oxazin-2-amine]	20
CN[C@@H]1CCN(c2nc(N)nc3c2OC[C@@H](C2CC2)N3)C1 [Example 1-6, (R)-7-Cyclopropyl-4-((R)-3-(methylamino)pyrrolidin-1-yl)-7,8-dihydro-6H-pyrimido[5,4-b][1,4]oxazin-2-amine]	0.631
CC[C@@H]1COc2c(nc(N)nc2N2CC(NC)C2)N1 [Example 3-1, (R)-7-Ethyl-4-(3-(methylamino)azetidin-1-yl)-7,8-dihydro-6H-pyrimido[5,4-b][1,4]oxazin-2-amine]	2
CN[C@@H]1CCN(c2nc(N)nc3c2OC[C@]2(C)CCCN32)C1 [Example 1-23, (S)-6a-Methyl-4-((R)-3-(methylamino)pyrrolidin-1-yl)-6a,7,8,9-tetrahydro-6H-pyrimido[5,4-b]pyrrolo[1,2-d][1,4]oxazin-2-amine]	39.8
CN[C@@H]1CCN(c2nc(N)nc3c2O[C@H](C)[C@@H](C)N3)C1 [Example 1-17, (6R,7R)-6,7-Dimethyl-4-((R)-3-(methylamino)pyrrolidin-1-yl)-7,8-dihydro-6H-pyrimido[5,4-b][1,4]oxazin-2-amine]	79.4
CN[C@@H]1CCN(c2nc(N)nc3c2OCC(C2COC2)N3)C1 (stereo partly drawn) [Example 1-13, 4-((R)-3-(Methylamino)pyrrolidin-1-yl)-7-(oxetan-3-yl)-7,8-dihydro-6H-pyrimido[5,4-b][1,4]oxazin-2-amine]	31.6
CNC1CN(c2nc(N)nc3c2OC[C@@H](C2CC2)N3)C1 [Example 3-3, (R)-7-Cyclopropyl-4-(3-(methylamino)azetidin-1-yl)-7,8-dihydro-6H-pyrimido[5,4-b][1,4]oxazin-2-amine]	7.94
